According to the NIST ThermoML archive (doi:10.1016/j.jct.2017.03.032):
± gives the expanded uncertainty stated by the source.

Details: Liquid, Closed cell (Static) method

F/C=C/C(F)(F)F [trans-1,3,3,3-tetrafluoropropene]
Details	vapor or sublimation pressure [kPa]
280.15 K	276.5 ± 20
285.18 K	328.2 ± 20
290.12 K	386 ± 20
295.11 K	452.1 ± 20
300.15 K	526.7 ± 20
305.15 K	609.7 ± 20
310.34 K	706.3 ± 20
315.18 K	805 ± 20
320.1 K	916.6 ± 20
325.17 K	1043.5 ± 20
330.13 K	1178.1 ± 20
